# According to patent US20080176787A1, “Parathyroid hormone analogues and methods of use” (priority 2005, published 2008):
# Like-named read-outs stand apart in the source and are kept apart here. Positions of bridges follow the written chain, without caps; N, C: chain ends. Residues, ends and D or L forms follow the SMILES beside them.
# What was measured:
# [1] = test system: gonad-intact cynomolgus monkeys; test: 52-week (12 months) daily subcutaneous study in gonad-intact young cynomolgus monkeys: bone mass, histomorphometry, % cortical porosity; assay type: in vivo; conditions: for % Cortical Porosity: Tibial Mid-Diaphysis, 12 months
# Method: The peptide [Leu^27]cyclo[Glu^22-Lys^26]-hPTH-(1-31)-NH2 Ostabolin-C™ was administered daily by subcutaneous injection to gonad-intact cynomolgus monkeys (4/sex/group) at dose levels of 0, 2, 10 and 25 μg/kg for 52 weeks. Monkeys were 30 to 40 months of age (2.3-3.5 kg) at treatment start. Tibiae were retained for histomorphometry following labeling with calcein green 15 and 5 days prior to euthanasia. Bone mass, as measured by DXA (dual-energy x-ray absorptiometry) and QCT (quantitative computed tomography), was increased at the lumbar spine, femur and tibia. Changes in vertebral BMD (bone mineral density) translated into significant increases in bone strength. […] Tibial cancellous bone volume increased by more than 50% in all the peptide [Leu^27]cyclo[Glu^22-Lys^26]-hPTH-(1-31)-NH2 treated groups compared to controls and in the tibial mid-diaphysis, increases in cortical width and relative cortical area with concurrent decreases in medullary area were observed. […] Increases in indices of bone formation were associated with decreases in indices of bone resorption (decreased bone resorption markers, decreased osteoclast surface area, minimal cortical porosity), consistent with the uncoupling of these events. This combination of anabolic and anti-catabolic actions may have significant therapeutic value in the treatment of osteoporosis.
# Comparative data regarding increase in cortical bone porosity in monkey subjects using Ostabolin C at a variety of doses and using the prior art PTHs 1-34 is shown below.
# [2] = Ostabolin-C Inhalation Powder (OCIP) Phase I pharmacokinetics; assay type: in vivo; conditions: female, human, blood
# Method: A Phase I clinical study was undertaken using Ostabolin-C™ Inhalation Powder (OCIP) to establish an MTD in post-menopausal women, to compare its PK profile with Phase II sub-cutaneous doses, and to evaluate biological activity with cAMP and biomarkers of bone turnover. The OCIP was administered using the Nektar T-326 dry powder inhaler (DPI), which is well-accepted by osteoporosis patients in focus groups. An ascending dose tolerance was used. Each cohort was randomized and included 6 active patients and 2 placebo patients. The patients were post menopausal healthy females that were older than 40 years of age and had no known history of osteoporosis or other bone disease.
# The primary measurements were taken at clinical laboratories where patient surveys were taken and the patient could describe any adverse events. Additionally the patients' vital signs were taken with Holter monitoring of EKGs and Spirometry. Pharmacokinetics, such as Ostabolin-C blood levels, PK parameters after a single dose and after 7 days of daily dosing were also measured. Pharmacodynamics were also monitored for changes in bone markers including P1NP, Osteocalcin, NTx, CTx, and urine cyclic AMP.
# [3] = Plasma pharmacokinetics of Ostabolin-C formulations in female rats, single 200 μg/kg SC, IM, IV; assay type: in vivo; conditions: rat; for Vd: iv
# Method: Formulations were prepared once only as follows: The bulk freeze-dried peptide was dissolved in 0.01 M acetic acid (supplied by Fisher Scientific, Loughborough, UK) in a 1:1 ratio, re-aliquotted into dosing vials and deep frozen (approximately −70° C.). The vials were freeze-dried at <−20° C. and stored frozen until required. The freeze-dried aliquots for injection were re-constituted with water for injection (supplied by Animalcare Ltd, York, UK). The peptide was dissolved in an appropriate volume of purified water to an approximate concentration of 2 to 3 mg/mL. Phosphate buffered saline (pH 7.4) was added to give the final required concentration (at approximately pH 7.2). The capped vial(s) were mixed thoroughly to ensure the peptide was fully dissolved. Aseptic techniques and glass vials were used throughout dose preparation. The dose was not sterile filtered. […] The calculated amounts of mannitol, sodium acetate trihydrate and glacial acetic acid were weighed and then dissolved in the correct amount of water for injection. The test article was weighed, added to the solution and stirred to dissolve. The pH was adjusted to 4.5 with 0.1N NaOH or HCl (supplied by Covance, Harrogate) depending on initial pH. Water was added to obtain the required volume.
# The calculated amount of lipoic acid was weighed and transferred to a suitable container and then dispersed with water for injection. The pH was adjusted to 7.7 with 1N NaOH (supplied by BDH Laboratory Supplies, a division of Merck Ltd, Poole, UK). The test article was weighed, added and stirred to dissolve. The pH was adjusted to 7.5 with 1N NaOH. Propylene glycol was added to obtain the correct volume.
# The calculated amount of DL-Methionine was weighed and transferred to a suitable container and dispersed in water for injection. The test article was weighed and added to the solution. The pH was adjusted to 7.5 with 0.1N NaOH. Ethanol was added to make the required volume.
# [4] = test system: post-menopausal women with low bone mineral density; conditions: human, in vivo
# Text: A four month Phase II clinical study was undertaken to investigate the safety, tolerability and efficacy of Ostabolin-C™ in post-menopausal women with low bone mineral density (BMD). […] The clinical protocol is a 16-week phase II randomized, double-blind, placebo-controlled, parallel group, dose finding study to investigate the safety, tolerability and efficacy of Ostabolin-C™ in post-menopausal women with low bone mineral density (BMD). In this study, 261 patients underwent four months of daily dosing of placebo and four active groups. The active groups included daily administration of Ostabolin-C™ in doses of 7.5, 15, 30, and 45 μg. Ostabolin-C™ is formulated as a clear, colorless liquid provided in pre-filled syringes and injected subcutaneously (SC). Subjects self-administer SC 0.1 mL injections of their assigned dose of Ostabolin-C™ 7.5, 15, 30, and 45 μg or placebo daily for 16 weeks in rotating quadrants of the abdomen. The subjects were post-menopausal women (for at least 5 years) with moderate osteoporosis.
# The key endpoints for the study include change in mean BMD at the lumbar spine, as assessed by dual energy x-ray absorptiometry (DEXA), and measured by change from the Baseline visit. The Baseline visit is the first visit of the patient, before undergoing any treatment. Secondary efficacy endpoints include the following, as measured by change from Baseline visit:
# DEXA: Bone formation and resorption markers: • Mean femoral neck BMD • Serum osteocalcin • Mean trochanter BMD • Serum amino terminal pro-peptide of type 1 pro-collagen (P1NP) • Mean total hip BMD • Mean radial BMD (distal and midshaft) • Bone specific alkaline phosphatase (BSAP) • Bone mineral content (BMC) • Serum C-telopeptide (CTx) • Bone area • Serum N-telopeptide (NTx)
compound,measurement,setting,value
"CC[C@H](C)[C@H](NC(=O)[C@H](CCC(=O)O)NC(=O)[C@H](CO)NC(=O)[C@@H](NC(=O)[C@@H](N)CO)C(C)C)C(=O)N[C@@H](CCC(N)=O)C(=O)N[C@@H](CC(C)C)C(=O)N[C@@H](CCSC)C(=O)N[C@@H](Cc1c[nH]cn1)C(=O)N[C@@H](CC(N)=O)C(=O)N[C@@H](CC(C)C)C(=O)NCC(=O)N[C@@H](CCCCN)C(=O)N[C@@H](Cc1c[nH]cn1)C(=O)N[C@@H](CC(C)C)C(=O)N[C@@H](CC(N)=O)C(=O)N[C@@H](CO)C(=O)N[C@@H](CCSC)C(=O)N[C@@H](CCC(=O)O)C(=O)N[C@@H](CCCN=C(N)N)C(=O)N[C@H](C(=O)N[C@H]1CCC(=O)NCCCC[C@@H](C(=O)N[C@@H](CC(C)C)C(=O)N[C@@H](CC(C)C)C(=O)N[C@@H](CCC(N)=O)C(=O)N[C@@H](CC(=O)O)C(=O)N[C@H](C(N)=O)C(C)C)NC(=O)[C@H](CCCN=C(N)N)NC(=O)[C@H](CC(C)C)NC(=O)[C@H](Cc2c[nH]c3ccccc23)NC1=O)C(C)C [Ostabolin-C, [Leu^27]cyclo[Glu^22-Lys^26]-PTH-(1-31)-NH2] (H-SVSEIQLMHNLGKHLNSMERVEWLRKLLQDV-NH2; lactam 22-26)",% Cortical Porosity,"[1]; F, 2 μg/kg/day",2.5 ± 0.41%
same,% Cortical Porosity,"[1]; F, 10 μg/kg/day",2.6 ± 0.85%
same,% Cortical Porosity,"[1]; F, 25 μg/kg/day",3.2 ± 0.87%
same,% Cortical Porosity,"[1]; M, 2 μg/kg/day",4.2 ± 0.29%
same,% Cortical Porosity,"[1]; M, 10 μg/kg/day",5.1 ± 1.08%
same,% Cortical Porosity,"[1]; M, 25 μg/kg/day",8.0 ± 5.54%
same,cortical porosity,"[1]; two highest dose levels, 52 weeks",Only minor increases
same,Cmax,"[2]; subcutaneous, Day 1, normalized to SC 45 μg",0.0747 ng/mL
same,AUC(0-t),"[2]; subcutaneous, Day 1, normalized to SC 45 μg, read-out: AUC(0-4)",0.0412 ng·h/mL
same,Tmax,"[2]; Day 1, SC, averaged for all subjects",13.2 min
same,half-life,"[2]; Day 1, SC, averaged for all subjects, read-out: T½ (converted)",37.2 min
same,bioavailability,"[3]; female, 200 ug/kg, IM, read-out: Absolute bioavailability",8.7%
same,level at 2 min,"[3]; female, 200 ug/kg, IV, not quantified, read-out: plasma concentrations at 2 minutes post the end of the infusion",> 610 ng/mL
same,bioavailability,"[3]; female, 200 ug/kg, SC, read-out: Absolute bioavailability (Fabs)",< 2%
same,Vd,"[3]; female, 200 ug/kg, IV, female rats, read-out: Vss",0.479 L/kg
same,Vd,"[3]; female, 200 ug/kg, IV, female rats, read-out: Vz",0.471 L/kg
same,half-life,"[3]; female, other: SC, 200 ug/kg, SC, IM and IV dose routes, read-out: terminal elimination half life, where calculable",7.2 to 42.4 min
same,clearance,"[3]; 200 ug/kg, IV, female rats",45.4 mL/min/kg
same,Tmax,"[3]; IV, female rats, post end of infusion",5 min
same,Pts > 2.75 mmol/L (sustained),[4],0
